Measured values: patent publication US9957274B2, “Indane inhibitors of EED and methods of their use” (AbbVie Inc., priority 2016, dated 2018)

Biological target: EED (Homo sapiens, UniProt O75530)
Experiment: EED TR-FRET Binding Assay (modified LanthaScreen competition assay)
Method: Compounds were tested in a modified LanthaScreen competition assay.
The following buffer was used to set up the binding reactions: 20 mM Tris-HCl pH 7.5, 200 mM NaCl, 0.01% Tween-20, 10 uM DTT (dithiothreitol), and 0.05% BSA (bovine serum albumin), with the DTT and BSA added fresh prior to initiating the binding assay. […] The reactions were then incubated for 1 hour at 25° C. in a humidified chamber prior to detection on the Perkin Elmer Envision plate reader using a Lanthascreen TR-FRET protocol.

EED, sequence (O75530 whole entry): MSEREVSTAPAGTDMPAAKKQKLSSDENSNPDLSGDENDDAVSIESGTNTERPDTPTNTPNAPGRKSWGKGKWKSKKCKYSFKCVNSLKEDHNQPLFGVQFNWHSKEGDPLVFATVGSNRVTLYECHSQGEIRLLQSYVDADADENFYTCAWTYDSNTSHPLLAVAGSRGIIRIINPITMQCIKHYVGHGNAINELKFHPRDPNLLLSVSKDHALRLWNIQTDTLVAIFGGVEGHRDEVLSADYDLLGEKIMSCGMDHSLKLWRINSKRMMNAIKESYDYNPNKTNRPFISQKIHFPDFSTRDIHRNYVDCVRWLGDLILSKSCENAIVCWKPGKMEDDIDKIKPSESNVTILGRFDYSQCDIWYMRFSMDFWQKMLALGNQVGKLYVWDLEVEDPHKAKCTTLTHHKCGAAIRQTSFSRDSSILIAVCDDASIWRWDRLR

Compared with CN(C)[C@H]1CN(C2CCc3cccc(O)c32)C[C@@H]1c1cn(C)c2ccccc12 (stereo partly drawn) [Example 97, 3-[(3R,4S)-3-(dimethylamino)-4-(1-methyl-1H-indol-3-yl)pyrrolidin-1-yl]-2,3-dihydro-1H-inden-4-ol], CN(C)[C@H]1CN(C2CCc3ccc(F)c(F)c32)C[C@@H]1c1cn(C)c2ccccc12 (stereo partly drawn) [Example 96, (3R,4S)-1-(6,7-difluoro-2,3-dihydro-1H-inden-1-yl)-N,N-dimethyl-4-(1-methyl-1H-indol-3-yl)pyrrolidin-3-amine] is 7.9-fold lower in IC50: 33.6 nM for the first, 4.26 nM for the second. The second is the more potent here.

CN(C)[C@H]1CN(C2CCc3cccc(F)c32)C[C@@H]1c1ccc(C(=O)N2CCN(S(C)(=O)=O)CC2)cc1 (mixture of isomers) [Example 53, rac-{4-[(3S,4R)-4-(dimethylamino)-1-(7-fluoro-2,3-dihydro-1H-inden-1-yl)pyrrolidin-3-yl]phenyl}[4-(methanesulfonyl)piperazin-1-yl]methanone] and CC(=O)N1CCN(C(=O)c2ccc([C@H]3CN(C4CCc5cccc(F)c54)C[C@@H]3N(C)C)cc2)CC1 (mixture of isomers) [Example 55, rac-1-(4-{4-[(3S,4R)-4-(dimethylamino)-1-(7-fluoro-2,3-dihydro-1H-inden-1-yl)pyrrolidin-3-yl]benzoyl}piperazin-1-yl)ethan-1-one] are within 1.5-fold of each other in IC50: 12.3 nM for the first, 13.2 nM for the second.

First: CN(C)[C@H]1CN([C@@H]2C[C@@H](O)c3cccc(F)c32)C[C@@H]1c1ccc(S(C)(=O)=O)cc1 (mixture of isomers) [Example 16, rac-(1R,3R)-3-{(3R,4S)-3-(dimethylamino)-4-[4-(methanesulfonyl)phenyl]pyrrolidin-1-yl}-4-fluoro-2,3-dihydro-1H-inden-1-ol]
Second: CN(C)[C@@H]1CN([C@H]2CC(O)c3cccc(F)c32)C[C@H]1c1ccc(S(C)(=O)=O)cc1 (stereo partly drawn) [Example 33, (3S)-3-{(3S,4R)-3-(dimethylamino)-4-[4-(methanesulfonyl)phenyl]pyrrolidin-1-yl}-4-fluoro-2,3-dihydro-1H-inden-1-ol]
The IC50 of the first is lower: 491 nM for the first, greater than 50000 nM for the second. The first is the more potent here.

Compared with CC(=O)N1CCN(c2ccc([C@H]3CN(C4CCc5ccccc54)C[C@@H]3N(C)C)cc2)CC1 (stereo partly drawn) [Example 42, 1-(4-{4-[(3S,4R)-1-(2,3-dihydro-1H-inden-1-yl)-4-(dimethylamino)pyrrolidin-3-yl]phenyl}piperazin-1-yl)ethan-1-one], CC(=O)N1CCN(c2ccc([C@@H]3CN([C@@H]4CCc5cccc(F)c54)C[C@H]3N(C)C)cc2)CC1 [Example 48, 1-[4-(4-{(3R,4S)-4-(dimethylamino)-1-[(1R)-7-fluoro-2,3-dihydro-1H-inden-1-yl]pyrrolidin-3-yl}phenyl)piperazin-1-yl]ethan-1-one] is lower in IC50: greater than 50000 nM for the first, 18 nM for the second. The second is the more potent here.

Compared with CN(C)[C@@H]1CN(C2CCc3cccc(F)c32)C[C@H]1c1cnc2n1CCCC2 (mixture of isomers) [Example 140, rac-(3S,4R)-1-(7-fluoro-2,3-dihydro-1H-inden-1-yl)-N,N-dimethyl-4-(5,6,7,8-tetrahydroimidazo[1,2-a]pyridin-3-yl)pyrrolidin-3-amine], CN(C)[C@@H]1CN(C2CCc3cccc(F)c32)C[C@H]1c1ccc(N2CCNCC2)nc1 (mixture of isomers) [Example 145, rac-(3S,4R)-1-(7-fluoro-2,3-dihydro-1H-inden-1-yl)-N,N-dimethyl-4-[6-(piperazin-1-yl)pyridin-3-yl]pyrrolidin-3-amine] is 12-fold lower in IC50: 61.3 nM for the first, 5.2 nM for the second.

Going from CN1CCN(C(=O)c2ccc([C@H]3CN(C4CCc5cccc(F)c54)C[C@@H]3N(C)C)cc2)CC1=O (mixture of isomers) [Example 51, rac-4-{4-[(3S,4R)-4-(dimethylamino)-1-(7-fluoro-2,3-dihydro-1H-inden-1-yl)pyrrolidin-3-yl]benzoyl}-1-methylpiperazin-2-one] to CN(C)[C@@H]1CN(C2CCc3cccc(F)c32)C[C@H]1c1ccc(N2CCN(C(=O)OC(C)(C)C)CC2)cc1 (stereo partly drawn) [Example 50, tert-butyl 4-{4-[(3R,4S)-4-(dimethylamino)-1-(7-fluoro-2,3-dihydro-1H-inden-1-yl)pyrrolidin-3-yl]phenyl}piperazine-1-carboxylate], the IC50 falls from 12.4 nM to 1.15 nM (11-fold).

CN(C)[C@H]1CN(C2CCc3cc(F)ccc32)C[C@@H]1c1cn(C)c2ccccc12 (mixture of isomers) [Example 91, rac-(3R,4S)-1-(5-fluoro-2,3-dihydro-1H-inden-1-yl)-N,N-dimethyl-4-(1-methyl-1H-indol-3-yl)pyrrolidin-3-amine] and CN(C)[C@H]1CN(C2CCc3c(F)cccc32)C[C@@H]1c1cn(C)c2ccccc12 (mixture of isomers) [Example 90, rac-(3R,4S)-1-(4-fluoro-2,3-dihydro-1H-inden-1-yl)-N,N-dimethyl-4-(1-methyl-1H-indol-3-yl)pyrrolidin-3-amine] are within 1.5-fold of each other in IC50: 30.7 nM for the first, 20.8 nM for the second.

Compared with COC(=O)c1ccc([C@H]2CN(C3CCc4cccc(Cl)c43)C[C@@H]2N(C)C)cc1 (mixture of isomers) [Example 21, rac-methyl 4-[(3S,4R)-1-(7-chloro-2,3-dihydro-1H-inden-1-yl)-4-(dimethylamino)pyrrolidin-3-yl]benzoate], COC(=O)c1ccc([C@H]2CN(C3CCc4cccc(F)c43)C[C@@H]2N(C)C)cc1C (mixture of isomers) [Example 39, rac-methyl 4-[(3S,4R)-4-(dimethylamino)-1-(7-fluoro-2,3-dihydro-1H-inden-1-yl)pyrrolidin-3-yl]-2-methylbenzoate] is 66-fold lower in IC50: 70.7 nM for the first, 1.07 nM for the second. The second is the more potent here.

Compared with CN(C)[C@H]1CN([C@@H]2CCc3cccc(F)c32)C[C@@H]1C1COc2ccccc21 (mixture of isomers) [Example 142, rac-(3R,4S)-4-(2,3-dihydro-1-benzofuran-3-yl)-1-[(1R)-7-fluoro-2,3-dihydro-1H-inden-1-yl]-N,N-dimethylpyrrolidin-3-amine], CN(C)[C@H]1CN(C2CCc3cccc(F)c32)C[C@@H]1c1cn(C)c2c(Br)cccc12 (mixture of isomers) [Example 93, rac-(3R,4S)-4-(7-bromo-1-methyl-1H-indol-3-yl)-1-(7-fluoro-2,3-dihydro-1H-inden-1-yl)-N,N-dimethylpyrrolidin-3-amine] is 9.4-fold lower in IC50: 26 nM for the first, 2.76 nM for the second.

Compared with CN(C)[C@@H]1CN(C2CCc3cccc(F)c32)C[C@H]1c1cn(C)c2c(C(=O)O)cccc12 (stereo partly drawn) [Example 81, 3-[(3R,4S)-4-(dimethylamino)-1-(7-fluoro-2,3-dihydro-1H-inden-1-yl)pyrrolidin-3-yl]-1-methyl-1H-indole-7-carboxylic acid], COC(=O)c1cccc2c([C@H]3CN(C4CCc5cccc(F)c54)C[C@@H]3N(C)C)cn(C)c12 (stereo partly drawn) [Example 84, methyl 3-[(3S,4R)-4-(dimethylamino)-1-(7-fluoro-2,3-dihydro-1H-inden-1-yl)pyrrolidin-3-yl]-1-methyl-1H-indole-7-carboxylate] is 330-fold lower in IC50: 98.2 nM for the first, 0.296 nM for the second.

CC(=O)N1CCN(c2ccc3c([C@H]4CN(C5CCc6cccc(F)c65)C[C@@H]4N(C)C)cn(C)c3c2)CC1 (mixture of isomers) [Example 121, rac-1-(4-{3-[(3S,4R)-4-(dimethylamino)-1-(7-fluoro-2,3-dihydro-1H-inden-1-yl)pyrrolidin-3-yl]-1-methyl-1H-indol-6-yl}piperazin-1-yl)ethan-1-one] and CN(C)[C@H]1CN(C2CCc3cccc(F)c32)C[C@@H]1c1cn(C)c2cc(N3CCN(S(C)(=O)=O)CC3)ccc12 (mixture of isomers) [Example 120, rac-(3R,4S)-1-(7-fluoro-2,3-dihydro-1H-inden-1-yl)-4-{6-[4-(methanesulfonyl)piperazin-1-yl]-1-methyl-1H-indol-3-yl}-N,N-dimethylpyrrolidin-3-amine] are within 1.5-fold of each other in IC50: 3.79 nM for the first, 3.46 nM for the second.

First: CN(C)[C@H]1CN(C2CCc3cccc(F)c32)C[C@@H]1C1CCOCC1 (mixture of isomers) [Example 144, rac-(3R,4S)-1-(7-fluoro-2,3-dihydro-1H-inden-1-yl)-N,N-dimethyl-4-(oxan-4-yl)pyrrolidin-3-amine]
Second: Cc1cc([C@H]2CN(C3CCc4cccc(F)c43)C[C@@H]2N(C)C)ccc1Br (mixture of isomers) [Example 27, rac-(3R,4S)-4-(4-bromo-3-methylphenyl)-1-(7-fluoro-2,3-dihydro-1H-inden-1-yl)-N,N-dimethylpyrrolidin-3-amine]
The IC50 of the first is 6.6-fold higher: 12.1 nM for the first, 1.84 nM for the second. The second is the more potent here.

Compared with COC(=O)c1ccc2c([C@@H]3CN(C4CCc5cccc(F)c54)C[C@H]3N(C)C)cn(C)c2c1 (mixture of isomers) [Example 83, rac-methyl 3-[(3R,4S)-4-(dimethylamino)-1-(7-fluoro-2,3-dihydro-1H-inden-1-yl)pyrrolidin-3-yl]-1-methyl-1H-indole-6-carboxylate], CN(C)[C@H]1CN(C2CCc3cccc(F)c32)C[C@@H]1c1cn(C)c2ccncc12 (mixture of isomers) [Example 141, rac-(3R,4S)-1-(7-fluoro-2,3-dihydro-1H-inden-1-yl)-N,N-dimethyl-4-(1-methyl-1H-pyrrolo[3,2-c]pyridin-3-yl)pyrrolidin-3-amine] is 4.3-fold higher in IC50: 10.9 nM for the first, 46.8 nM for the second. The first is the more potent here.

Cc1cc([C@H]2CN(C3CCc4cccc(F)c43)C[C@@H]2N(C)C)ccc1C(=O)O (mixture of isomers) [Example 36, rac-4-[(3S,4R)-4-(dimethylamino)-1-(7-fluoro-2,3-dihydro-1H-inden-1-yl)pyrrolidin-3-yl]-2-methylbenzoic acid] and CN(C)[C@H]1CN([C@@H]2CCc3cccc(F)c32)C[C@@H]1c1cn(C)c2cccnc12 (mixture of isomers) [Example 143, rac-(3R,4S)-1-[(1R)-7-fluoro-2,3-dihydro-1H-inden-1-yl]-N,N-dimethyl-4-(1-methyl-1H-pyrrolo[3,2-b]pyridin-3-yl)pyrrolidin-3-amine] are within 1.5-fold of each other in IC50: 14.3 nM for the first, 19.4 nM for the second.

Going from CN(C)[C@H]1CN([C@H]2C[C@@H](O)c3cccc(F)c32)C[C@@H]1c1ccc(S(C)(=O)=O)cc1 (mixture of isomers) [Example 34, rac-(1R,3S)-3-{(3R,4S)-3-(dimethylamino)-4-[4-(methanesulfonyl)phenyl]pyrrolidin-1-yl}-4-fluoro-2,3-dihydro-1H-inden-1-ol] to CN(C)[C@H]1CN([C@H]2CCc3ccccc32)C[C@@H]1c1ccc(S(C)(=O)=O)cc1 [Example 9, (3R,4S)-1-[(1S)-2,3-dihydro-1H-inden-1-yl]-4-[4-(methanesulfonyl)phenyl]-N,N-dimethylpyrrolidin-3-amine], the IC50 falls from 104 nM to 10.1 nM (10-fold).
